From paper doi:10.1101/2023.10.20.563248v1 (biorxiv, 2023)

What was measured:
Conditions in all cases: 1 µM; inhibitor
[1] = biological target: BRK (Homo sapiens, UniProt Q13882)
[2] = biological target: PKCa (Homo sapiens, UniProt P17252)
[3] = biological target: TGFBR1 (Homo sapiens, UniProt P36897)
[4] = biological target: CK1a (Homo sapiens, UniProt P48729)
[5] = biological target: LIMK2 (Homo sapiens, UniProt P53671)
[6] = biological target: MKK4 (Homo sapiens, UniProt P45985)
[7] = biological target: SRPK1 (Homo sapiens, UniProt Q96SB4)
[8] = biological target: CDK3 (Homo sapiens, UniProt Q00526)
[9] = biological target: MEK1 (Homo sapiens, UniProt Q02750)
[10] = biological target: IKKa (Homo sapiens, UniProt O15111)
[11] = biological target: CDK1/CycA2 (Homo sapiens, UniProt P06493)
[12] = biological target: EPHA4 (Homo sapiens, UniProt P54764)
[13] = biological target: STK17A (Homo sapiens, UniProt Q9UEE5)
[14] = biological target: CDK2/CycD1 (Homo sapiens, UniProt P24941)
[15] = biological target: MAP4K2 (Homo sapiens, UniProt Q12851)
[16] = biological target: IGF1R (Homo sapiens, UniProt P08069)
[17] = biological target: RPS6KB2 (Homo sapiens, UniProt Q9UBS0)
[18] = biological target: MELK (Homo sapiens, UniProt Q14680)
[19] = biological target: MAP3K1 (Homo sapiens, UniProt Q13233)
[20] = biological target: DNAPK (Homo sapiens, UniProt P78527)
[21] = biological target: MYLK3 (Homo sapiens, UniProt Q32MK0)
[22] = biological target: PDGFRa (Homo sapiens, UniProt P16234)
[23] = biological target: BRSK1 (Homo sapiens, UniProt Q8TDC3)
[24] = biological target: RPS6KA6 (Homo sapiens, UniProt Q9UK32)
[25] = biological target: DAPK3 (Homo sapiens, UniProt O43293)
[26] = biological target: PKCbeta2 (Homo sapiens, UniProt P05771)
[27] = biological target: MST4 (Homo sapiens, UniProt Q9P289)
[28] = biological target: BRAF (Homo sapiens, UniProt P15056)
[29] = biological target: SIK2 (Homo sapiens, UniProt Q9H0K1)
[30] = biological target: TYK2 (Homo sapiens, UniProt P29597)
[31] = biological target: STK25 (Homo sapiens, UniProt O00506)

Sequence of RPS6KA6 (Q9UK32 whole entry): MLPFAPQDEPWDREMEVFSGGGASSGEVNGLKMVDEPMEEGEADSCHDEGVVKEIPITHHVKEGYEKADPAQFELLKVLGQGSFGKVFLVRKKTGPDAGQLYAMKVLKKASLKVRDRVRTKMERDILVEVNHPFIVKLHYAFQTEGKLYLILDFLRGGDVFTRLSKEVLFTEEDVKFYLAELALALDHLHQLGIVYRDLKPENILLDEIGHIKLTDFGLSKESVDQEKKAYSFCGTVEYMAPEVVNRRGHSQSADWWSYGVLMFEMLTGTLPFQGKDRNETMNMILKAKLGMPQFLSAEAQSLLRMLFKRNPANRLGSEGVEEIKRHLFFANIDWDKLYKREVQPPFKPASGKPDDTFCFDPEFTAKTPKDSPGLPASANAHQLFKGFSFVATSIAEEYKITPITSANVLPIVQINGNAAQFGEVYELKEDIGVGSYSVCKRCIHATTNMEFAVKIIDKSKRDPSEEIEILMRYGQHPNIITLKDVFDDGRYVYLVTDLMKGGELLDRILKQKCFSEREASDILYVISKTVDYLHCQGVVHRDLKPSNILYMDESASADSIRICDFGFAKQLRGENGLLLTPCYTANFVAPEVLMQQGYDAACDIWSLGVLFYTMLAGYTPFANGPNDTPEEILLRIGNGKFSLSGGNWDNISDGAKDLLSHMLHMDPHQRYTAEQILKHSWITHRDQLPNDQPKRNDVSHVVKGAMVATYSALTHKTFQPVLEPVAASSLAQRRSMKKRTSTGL
Sequence of MKK4 (P45985 whole entry): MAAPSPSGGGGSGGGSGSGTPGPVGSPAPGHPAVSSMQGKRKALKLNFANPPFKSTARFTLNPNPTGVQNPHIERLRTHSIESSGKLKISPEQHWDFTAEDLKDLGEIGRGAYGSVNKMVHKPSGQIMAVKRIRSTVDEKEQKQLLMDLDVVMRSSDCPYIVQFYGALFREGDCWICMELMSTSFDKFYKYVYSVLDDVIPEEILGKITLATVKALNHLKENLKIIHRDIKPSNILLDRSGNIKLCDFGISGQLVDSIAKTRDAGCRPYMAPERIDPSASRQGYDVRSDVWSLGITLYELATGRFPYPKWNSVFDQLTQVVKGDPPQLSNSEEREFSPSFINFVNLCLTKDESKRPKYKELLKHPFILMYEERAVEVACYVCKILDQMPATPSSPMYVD
Sequence of STK17A (Q9UEE5 whole entry): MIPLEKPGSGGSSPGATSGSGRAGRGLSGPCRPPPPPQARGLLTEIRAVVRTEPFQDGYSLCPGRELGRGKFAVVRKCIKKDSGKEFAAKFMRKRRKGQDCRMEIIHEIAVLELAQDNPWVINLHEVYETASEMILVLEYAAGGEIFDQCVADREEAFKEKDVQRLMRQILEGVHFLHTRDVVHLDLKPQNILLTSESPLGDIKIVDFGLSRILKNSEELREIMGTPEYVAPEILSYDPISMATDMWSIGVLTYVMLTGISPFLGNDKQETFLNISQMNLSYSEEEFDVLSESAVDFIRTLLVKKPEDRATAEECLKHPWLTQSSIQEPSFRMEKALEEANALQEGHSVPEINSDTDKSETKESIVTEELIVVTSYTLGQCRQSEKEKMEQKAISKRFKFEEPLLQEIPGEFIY
Sequence of MELK (Q14680 whole entry): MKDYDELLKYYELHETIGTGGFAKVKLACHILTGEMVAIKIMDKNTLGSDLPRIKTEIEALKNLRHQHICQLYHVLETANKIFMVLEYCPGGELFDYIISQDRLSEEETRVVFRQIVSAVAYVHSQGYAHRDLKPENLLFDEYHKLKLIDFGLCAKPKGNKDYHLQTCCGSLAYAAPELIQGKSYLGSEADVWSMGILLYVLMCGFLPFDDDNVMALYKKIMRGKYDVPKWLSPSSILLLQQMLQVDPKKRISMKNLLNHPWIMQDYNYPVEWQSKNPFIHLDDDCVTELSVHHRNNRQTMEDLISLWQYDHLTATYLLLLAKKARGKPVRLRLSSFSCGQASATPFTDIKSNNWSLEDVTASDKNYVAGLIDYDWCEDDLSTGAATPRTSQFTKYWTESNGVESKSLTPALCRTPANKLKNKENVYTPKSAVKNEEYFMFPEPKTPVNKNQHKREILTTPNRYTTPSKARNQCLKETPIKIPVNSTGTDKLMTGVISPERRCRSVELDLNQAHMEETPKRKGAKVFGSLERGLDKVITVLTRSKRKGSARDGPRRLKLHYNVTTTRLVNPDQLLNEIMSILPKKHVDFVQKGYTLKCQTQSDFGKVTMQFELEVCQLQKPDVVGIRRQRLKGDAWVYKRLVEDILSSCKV
Sequence of DAPK3 (O43293 whole entry): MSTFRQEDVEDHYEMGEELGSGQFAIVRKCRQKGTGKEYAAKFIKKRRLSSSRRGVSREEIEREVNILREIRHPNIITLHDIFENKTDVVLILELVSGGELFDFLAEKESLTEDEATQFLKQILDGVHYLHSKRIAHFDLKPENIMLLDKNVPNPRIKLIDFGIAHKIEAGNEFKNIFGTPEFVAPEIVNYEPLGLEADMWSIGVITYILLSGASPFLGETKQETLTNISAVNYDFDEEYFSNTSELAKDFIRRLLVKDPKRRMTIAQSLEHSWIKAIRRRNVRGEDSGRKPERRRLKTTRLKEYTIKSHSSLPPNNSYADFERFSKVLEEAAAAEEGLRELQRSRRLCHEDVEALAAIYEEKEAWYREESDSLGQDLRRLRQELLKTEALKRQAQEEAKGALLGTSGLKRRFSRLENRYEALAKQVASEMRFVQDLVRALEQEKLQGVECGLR
Sequence of PKCbeta2 (P05771 whole entry): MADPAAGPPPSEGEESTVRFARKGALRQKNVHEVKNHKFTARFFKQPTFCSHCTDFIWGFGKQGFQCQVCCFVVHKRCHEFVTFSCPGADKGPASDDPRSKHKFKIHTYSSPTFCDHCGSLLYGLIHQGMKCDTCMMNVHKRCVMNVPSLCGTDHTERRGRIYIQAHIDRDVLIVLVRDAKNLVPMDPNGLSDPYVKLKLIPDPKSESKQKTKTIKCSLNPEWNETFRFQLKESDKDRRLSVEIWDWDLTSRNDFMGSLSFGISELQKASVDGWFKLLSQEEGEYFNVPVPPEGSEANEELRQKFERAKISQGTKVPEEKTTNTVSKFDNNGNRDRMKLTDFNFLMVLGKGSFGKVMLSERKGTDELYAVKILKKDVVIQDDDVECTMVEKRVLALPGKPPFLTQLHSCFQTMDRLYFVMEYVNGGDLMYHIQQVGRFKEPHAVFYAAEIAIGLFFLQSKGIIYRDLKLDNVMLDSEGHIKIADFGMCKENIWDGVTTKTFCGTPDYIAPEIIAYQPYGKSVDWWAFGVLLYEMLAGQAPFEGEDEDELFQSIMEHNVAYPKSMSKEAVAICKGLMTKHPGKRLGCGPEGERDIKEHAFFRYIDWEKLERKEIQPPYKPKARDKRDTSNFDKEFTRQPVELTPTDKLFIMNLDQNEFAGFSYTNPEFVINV
Sequence of MYLK3 (Q32MK0 whole entry): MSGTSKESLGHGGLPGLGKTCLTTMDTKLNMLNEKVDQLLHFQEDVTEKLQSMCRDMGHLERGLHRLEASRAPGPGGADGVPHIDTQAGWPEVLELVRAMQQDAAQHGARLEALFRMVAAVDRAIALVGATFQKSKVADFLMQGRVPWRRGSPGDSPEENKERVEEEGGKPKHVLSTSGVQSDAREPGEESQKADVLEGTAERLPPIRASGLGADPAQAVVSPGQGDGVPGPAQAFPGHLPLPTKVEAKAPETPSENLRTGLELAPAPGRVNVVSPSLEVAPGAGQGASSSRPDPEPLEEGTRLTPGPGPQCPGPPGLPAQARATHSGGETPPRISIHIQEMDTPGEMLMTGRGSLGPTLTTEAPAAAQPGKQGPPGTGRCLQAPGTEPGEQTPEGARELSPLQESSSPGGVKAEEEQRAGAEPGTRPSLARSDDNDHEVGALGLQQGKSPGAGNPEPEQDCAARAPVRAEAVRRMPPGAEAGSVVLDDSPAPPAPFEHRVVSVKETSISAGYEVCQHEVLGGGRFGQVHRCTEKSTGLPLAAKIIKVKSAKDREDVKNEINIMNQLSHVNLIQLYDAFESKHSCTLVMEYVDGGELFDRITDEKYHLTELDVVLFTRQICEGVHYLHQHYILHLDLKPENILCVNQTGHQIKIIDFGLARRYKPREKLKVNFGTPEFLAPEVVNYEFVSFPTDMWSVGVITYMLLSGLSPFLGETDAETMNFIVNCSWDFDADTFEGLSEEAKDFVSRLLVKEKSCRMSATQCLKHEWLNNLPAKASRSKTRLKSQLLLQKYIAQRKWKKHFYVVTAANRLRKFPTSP
Sequence of CDK3 (Q00526 whole entry): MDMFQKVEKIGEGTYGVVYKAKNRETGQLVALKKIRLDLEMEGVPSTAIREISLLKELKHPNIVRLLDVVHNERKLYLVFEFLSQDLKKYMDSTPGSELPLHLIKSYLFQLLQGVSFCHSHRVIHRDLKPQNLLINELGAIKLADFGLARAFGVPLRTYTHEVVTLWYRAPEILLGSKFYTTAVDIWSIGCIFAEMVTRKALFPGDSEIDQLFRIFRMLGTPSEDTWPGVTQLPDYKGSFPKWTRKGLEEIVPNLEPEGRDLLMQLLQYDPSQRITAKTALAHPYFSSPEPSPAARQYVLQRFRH
Sequence of MST4 (Q9P289 whole entry): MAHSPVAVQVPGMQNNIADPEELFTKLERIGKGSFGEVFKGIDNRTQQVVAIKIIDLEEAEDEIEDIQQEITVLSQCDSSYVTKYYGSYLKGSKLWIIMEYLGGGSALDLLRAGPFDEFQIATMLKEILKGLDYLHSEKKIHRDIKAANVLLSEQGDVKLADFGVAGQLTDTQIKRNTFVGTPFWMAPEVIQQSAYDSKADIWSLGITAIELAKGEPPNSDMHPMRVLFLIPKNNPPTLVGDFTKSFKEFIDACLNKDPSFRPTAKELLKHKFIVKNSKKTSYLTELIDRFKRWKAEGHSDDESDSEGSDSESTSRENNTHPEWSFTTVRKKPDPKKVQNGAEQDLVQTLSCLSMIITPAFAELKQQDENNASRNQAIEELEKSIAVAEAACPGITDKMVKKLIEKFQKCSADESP

21c Remaining activity, percent of control [%] [1]: 99.3%
21c Remaining activity, percent of control [%] [2]: 107.7%
21c Remaining activity, percent of control [%] [3]: 124.6%
21c Remaining activity, percent of control [%] [4]: 102.0%
21c Remaining activity, percent of control [%] [5]: 38.2%
21c Remaining activity, percent of control [%] [6]: 127.3%
21c Remaining activity, percent of control [%] [7]: 101.4%
21c Remaining activity, percent of control [%] [8]: 95.9%
21c Remaining activity, percent of control [%] [9]: 118.7%
21c Remaining activity, percent of control [%] [10]: 80.7%
21c Remaining activity, percent of control [%] [11]: 91.9%
21c Remaining activity, percent of control [%] [12]: 67.5%
21c Remaining activity, percent of control [%] [13]: 103.5%
21c Remaining activity, percent of control [%] [14]: 121.3%
21c Remaining activity, percent of control [%] [15]: 112.8%
21c Remaining activity, percent of control [%] [16]: 102.9%
21c Remaining activity, percent of control [%] [17]: 99.0%
21c Remaining activity, percent of control [%] [18]: 47.0%
21c Remaining activity, percent of control [%] [19]: 100.1%
21c Remaining activity, percent of control [%] [20]: 100.7%
21c Remaining activity, percent of control [%] [21]: 86.4%
21c Remaining activity, percent of control [%] [22]: 102.0%
21c Remaining activity, percent of control [%] [23]: 112.9%
21c Remaining activity, percent of control [%] [24]: 73.5%
21c Remaining activity, percent of control [%] [25]: 107.0%
21c Remaining activity, percent of control [%] [26]: 100.8%
21c Remaining activity, percent of control [%] [27]: 18.0%
21c Remaining activity, percent of control [%] [28]: 89.7%
21c Remaining activity, percent of control [%] [29]: 97.5%
21c Remaining activity, percent of control [%] [30]: 116.8%
21c Remaining activity, percent of control [%] [31]: 57.2%
Structure (SMILES): O=C1NCCCCCNc2nc(c3ccccc3n2)Nc2cc1[nH]n2 [21c, (Z)-3^1H-2,5,11-triaza-1(4,2)-quinazolina-3(3,5)-pyrazolacycloundecaphan-4-one]
